Results as given in patent US8647867B2, “Cell cultivation method and cell culture” (National University Corportion Okayama University, priority 2005, dated 2014).

Assays:
Assay type in all cases: cell-based
porcine hepatocyte [1] = assay: Metabolic ability of ammonia in cultured porcine hepatocyte; design: ammonia metabolic rate: unit not given beside the values; conditions: for ammonia metabolic rate: ammonium sulfate 0.56 mM, after 24 hours
porcine hepatocyte [2] = assay: Metabolic ability of lidocaine in cultured porcine hepatocyte; design: lidocaine metabolic rate: unit not given beside the values; conditions: for lidocaine metabolic rate: lidocaine 1 mg/ml, after 24 hours
porcine pancreatic islet [3] = assay: Insulin production ability of cultured porcine pancreatic islet
Description: A process of isolation of porcine pancreatic islet was carried out according to the method for isolation of human pancreatic islet (see, Lakey J R T, Kobayashi N, Shapiro A M J, Ricordi C, Okitsu T: Current human islet isolation protocol. Medical Review Co., Ltd., Osaka, Japan, 2004), and followed a method in a published literature (Yonekawa Y, Matsumono S, Okitsu T, Arata T, Iwanaga Y, Noguchi H, Nagata H, O'Neil J J, Tanaka K: Effective islet isolation method with extremely high islet yields from adult pigs. Cell Transplant. 14(10): 757-62, 2005). Those skilled in the art are capable of isolating pancreatic islet by referring to this literature.
Insulin production abilities of cultured porcine pancreatic islet were determined and compared between groups A and B. Using low glucose DMEM (glucose concentration: […]) (available from 25 GIBCO, Oakland, N.J.) supplemented with 10% FCS, nicotineamide 10 mM and penicillin G/streptomycin, cells were cultured for 24 hours until 60% confluency (low glucose). Then, the medium was changed for high glucose DMEM (glucose concentration: […]) (available from GIBCO, Oakland, N.J.) supplemented with 10% FCS, nicotineamide 10 mM and penicillin G/streptomycin, and cells were cultured for 6 hours (high glucose). After high glucose culture, the medium was exchanged for low glucose DMEM and cells were cultured for 6 hours (low glucose (after)). After each culture operation, the production amount of insulin in the culture medium (μg/l) was determined by an immunostaining method using a rabbit anti-human insulin antibody (available from DakoCytomation K. K., Kyoto, Japan).

porcine pancreatic islet [4] = assay: Morphological study of cultured porcine pancreatic islet by electron microscope (morphological criteria, points); conditions: porcine pancreatic islets, day 5 of culture
Description: As the inspection method of cultured pancreatic islets, a method is mentioned in which the following 4 items as morphological criteria are evaluated at 5 levels (1 to 5 points) (see, literature: Matsumoto S, Qualley S A, Goel S, et al., Effect of the two-layer (University of Wisconsin solution-Perfluorochemical plus 02) method of pancreas preservation on human islet isolation as assessed by Edmonton isolation protocol. Transplantation 2002; 74: 1414).
Evaluation is performed at 5 levels of “flat: 1 point”, “approximately flat: 2 points”, “irregularly spherical: 3 points”, “approximately spherical: 4 points”, and “spherical: 5 points”.
Evaluation is performed at 5 levels of “irregular: 1 point”, “approximately irregular: 2 points”, “somewhat well-rounded: 3 points”, “approximately well-rounded: 4 points”, and “well-rounded: 5 points”. Among these, “well-rounded: 5 points” is most preferable.
Evaluation is performed at 5 levels of “fragmented: 1 point”, “approximately fragmented: 2 points”, “somewhat solid/compact: 3 points”, “approximately solid/compact: 4 points”, and “solid/compact: 5 points”. Among these, “solid/compact: 5 points” is most preferable.
Evaluation is performed at 5 levels of “smaller than 100 μm for individual cultured pancreatic islets (all <100 μm): 1 point”, “100 to 150 μm for individual cultured pancreatic islets: 2 points”, “[…] for individual cultured pancreatic islets: 3 points”, “150 to 200 μm for individual cultured pancreatic islets: 4 points”, and “larger than 200 μm for at least 10% of individual cultured pancreatic islets (>10%>200 μm): 5 points”. Among these, “larger than 200 μm for at least 10% of individual cultured pancreatic islets: 5 points” is most preferable.
In the above-described criteria, the shape “flat” means that when a pancreatic islet is considered to be elliptic sphere, the ratio of major axis/minor axis is at least 10, the shape “approximately flat” means that the above-described ratio of major axis/minor axis is at least 5 and less than 10, the shape “irregularly spherical” means that the above-described ratio of major axis/minor axis is at least 2 and less than 5, the shape “approximately spherical” means that the above-described ratio of major axis/minor axis is at least 1.2 and less than 2, and the shape “spherical” means that the above-described ratio of major axis/minor axis is less than 1.2. […]

porcine hepatocyte [5] = assay: Viability of porcine hepatocyte (live/dead test); conditions: culture without insert, days 1, 7 and 14 of culture
Description: Therefore, it was clarified that it is more suitable for culture of porcine hepatocyte to use PuraMatrix of SEQ ID NO:1 Since the appended Photographs are converted into white and black two tones, dyed colors are not expressed.

[6] = porcine hepatocyte, culture with insert, days 1, 7, 14 and 21
[7] = porcine hepatocyte, culture without insert, days 1, 7 and 14

## CC(=O)N[C@@H](CCCNC(=N)N)C(=O)N[C@@H](C)C(=O)N[C@@H](CC(=O)O)C(=O)N[C@@H](C)C(=O)N[C@@H](CCCNC(=N)N)C(=O)N[C@@H](C)C(=O)N[C@@H](CC(=O)O)C(=O)N[C@@H](C)C(=O)N[C@@H](CCCNC(=N)N)C(=O)N[C@@H](C)C(=O)N[C@@H](CC(=O)O)C(=O)N[C@@H](C)C(=O)N[C@@H](CCCNC(=N)N)C(=O)N[C@@H](C)C(=O)N[C@@H](CC(=O)O)C(=O)N[C@@H](C)C(N)=O [Group A, Ac-(RADA)4-CONH2]
Porcine hepatocyte [1]; Table 1(a), culture without insert, day 1 of culture
  ammonia metabolic rate: 58.6
Porcine hepatocyte [1]; Table 1(a), culture without insert, day 7 of culture
  ammonia metabolic rate: 43.8
Porcine hepatocyte [1]; Table 1(a), culture without insert, day 14 of culture
  ammonia metabolic rate: 26.4
Porcine hepatocyte [1]; Table 1(c), culture with insert, day 1 of culture
  ammonia metabolic rate: 61.6
Porcine hepatocyte [1]; Table 1(c), culture with insert, day 7 of culture
  ammonia metabolic rate: 49.6
Porcine hepatocyte [1]; Table 1(c), culture with insert, day 14 of culture
  ammonia metabolic rate: 38.2
Porcine hepatocyte [1]; Table 1(c), culture with insert, day 21 of culture
  ammonia metabolic rate: 36.1
Porcine hepatocyte [1]; Table 1b, culture without insert, day 1 of culture
  ammonia metabolic rate: 59.8
Porcine hepatocyte [1]; Table 1b, culture without insert, day 7 of culture
  ammonia metabolic rate: 44.3
Porcine hepatocyte [1]; Table 1b, culture without insert, day 14 of culture
  ammonia metabolic rate: 33.3
Porcine hepatocyte [1]; [6]
  ammonia metabolic rate as compared with collagen type I (monolayer) (group B), Matrigel (group C) and collagen sandwich (group D): significantly better
Porcine hepatocyte [1]; [7]
  ammonia metabolic rate as compared with collagen type I (monolayer) (group B): significantly better
  ammonia metabolic rate as compared with collagen type I (monolayer) (group B) and Matrigel (group C): significantly better
Porcine hepatocyte [2]; Table 2(a), culture without insert, day 1 of culture
  lidocaine metabolic rate: 40.0
Porcine hepatocyte [2]; Table 2(a), culture without insert, day 7 of culture
  lidocaine metabolic rate: 31.9
Porcine hepatocyte [2]; Table 2(a), culture without insert, day 14 of culture
  lidocaine metabolic rate: 19.1
Porcine hepatocyte [2]; Table 2(c), culture with insert, day 1 of culture
  lidocaine metabolic rate: 44.0
Porcine hepatocyte [2]; Table 2(c), culture with insert, day 7 of culture
  lidocaine metabolic rate: 36.9
Porcine hepatocyte [2]; Table 2(c), culture with insert, day 14 of culture
  lidocaine metabolic rate: 32.4
Porcine hepatocyte [2]; Table 2(c), culture with insert, day 21 of culture
  lidocaine metabolic rate: 30.2
Porcine hepatocyte [2]; Table 2b, culture without insert, day 1 of culture
  lidocaine metabolic rate: 40.8
Porcine hepatocyte [2]; Table 2b, culture without insert, day 7 of culture
  lidocaine metabolic rate: 32.2
Porcine hepatocyte [2]; Table 2b, culture without insert, day 14 of culture
  lidocaine metabolic rate: 21.0
Porcine hepatocyte [2]; [6]
  lidocaine metabolic rate as compared with collagen type I (monolayer) (group B), Matrigel (group C) and collagen sandwich (group D): significantly better
Porcine hepatocyte [2]; [7]
  lidocaine metabolic rate as compared with collagen type I (monolayer) (group B): significantly better
  lidocaine metabolic rate as compared with collagen type I (monolayer) (group B) and Matrigel (group C): significantly better
Porcine pancreatic islet [3]; porcine islets (10 seeded), day 0 of culture, low glucose (100 g/l, 24 hours)
  production amount of insulin in the culture medium: 0.80 µg/L
Porcine pancreatic islet [3]; porcine islets, day 0 of culture, high glucose (450 g/l, 6 hours)
  production amount of insulin in the culture medium: 1.62 µg/L
Porcine pancreatic islet [3]; porcine islets, day 0 of culture, low glucose (after), 6 hours
  production amount of insulin in the culture medium: 1.01 µg/L
Porcine pancreatic islet [3]; porcine islets, day 3 of culture, high glucose (450 g/l, 6 hours)
  production amount of insulin in the culture medium: 1.48 µg/L
Porcine pancreatic islet [3]; porcine islets, day 3 of culture, low glucose (100 g/l, 24 hours)
  production amount of insulin in the culture medium: 0.80 µg/L
Porcine pancreatic islet [3]; porcine islets, day 3 of culture, low glucose (after), 6 hours
  production amount of insulin in the culture medium: 0.90 µg/L
Porcine pancreatic islet [3]; porcine islets, day 5 of culture, high glucose (450 g/l, 6 hours)
  production amount of insulin in the culture medium: 1.24 µg/L
Porcine pancreatic islet [3]; porcine islets, day 5 of culture, low glucose (100 g/l, 24 hours)
  production amount of insulin in the culture medium: 0.69 µg/L
Porcine pancreatic islet [3]; porcine islets, day 5 of culture, low glucose (after), 6 hours
  production amount of insulin in the culture medium: 0.78 µg/L
Porcine pancreatic islet [3]; porcine islets, day 7 of culture, high glucose (450 g/l, 6 hours)
  production amount of insulin in the culture medium: 0.90 µg/L
Porcine pancreatic islet [3]; porcine islets, day 7 of culture, low glucose (100 g/l, 24 hours)
  production amount of insulin in the culture medium: 0.49 µg/L
Porcine pancreatic islet [3]; porcine islets, day 7 of culture, low glucose (after), 6 hours
  production amount of insulin in the culture medium: 0.71 µg/L
Porcine pancreatic islet [3]; porcine pancreatic islet, day 5 of culture
  amount of insulin secreted in high glucose concentration (response to glucose concentration): increased
Porcine pancreatic islet [4]
  pancreatic islet morphology: 1. shape: 5 (spherical: 5 points)
  pancreatic islet morphology: 2. border shape: 5 (well-rounded: 5 points)
  pancreatic islet morphology: 3. integrity: 5 (solid/compact: 5 points)
  pancreatic islet morphology: sum of the evaluation values: 18 points
Porcine hepatocyte [5]
  viability of porcine hepatocytes (live cells green, dead cells red): most cells exhibited a green color
